Assay results: US20250179033A1 (priority 2021, published 2025)
Like-named read-outs stand apart in the source and are kept apart here.

Key:
[1] = Kinetic solubility; format: physicochemical; details: Universal Aqueous buffer pH 7.4
Description: Kinetic Solubility: 396 μL of Universal Aqueous buffer (pH 7.4) was added to 4 μL of a 50 mM DMSO stock solution of each compound. Wells were agitated for 4 hours at 20° C. and then filtered. The compound was then diluted to serial concentrations with DMSO, followed by serial dilutions with ACN:H2O (1:1) prior to liquid chromatography-mass spectroscopy (LCMS) analysis. The calculated concentration (μM) of soluble compound was determined in reference to a standard curve.

[2] = system: TZM-bl cells; test: Toxicity assay in TZM-bl cells; format: cell-based
Procedure, shortened: (§1)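 TZM-bl cells (2×10^5/mL, with DEAE-dextran) were exposed to serially diluted compound plus virus at a constant 0.005% or 0.05% DMSO for 48 h at 37 °C. CellTiter-Blue was added at 46 h and incubated 2 h. Viability was read as fluorescence at 560/590 nm after stopping with 1.5% SDS.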

[3] = Toxicity assay in TZM-bl cells; format: cell-based; details: human
Procedure, shortened: as §1

[4] = Mouse liver microsome stability; format: in vitro ADME
Description: Mouse/Human liver microsome stability: A liver microsome solution (197.5 μL, 1.27 mg/ml protein concentration) (Sekisui Xenotech, Kansas City, KS) was aliquoted into 1.1 ml tubes, to which 2.5 μL of positive control and compound stock solutions (100 μM in DMSO) were added. The tubes were vortexed gently, pre-incubated for 5 min at 37° C., then 50 μL of 5 mM NADPH or LM buffer (no NADPH buffer) was added into the tubes. For analysis, an aliquot of 15 μL was removed from each tube at 0, 5, 15, 30 and 60 min (without-NADPH reaction: 0, 30 and 60 min) and quenched with 300 μL of 25 ng/ml propranolol in acetonitrile. Samples were vigorously vortexed for 1 min and then centrifuged at 4,000 rpm for 15 min at 4° C. 100 μL of supernatant from each sample was transferred to 0.65 ml tubes for LCMS analysis. The amount of parent compound was determined on the basis of the peak area ratio (compound area to IS area) for each time point. Clearance rates were calculated by the equation: […]

[5] = system: HIV-1 IIIB A17 variant (Y181C/K103N); test: HIV inhibition assay in TZM-bl cells, A17 variant; format: cell-based
Procedure, shortened: (§2)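 TZM-bl cells with 15 μg/mL DEAE-dextran were infected with H9-grown HIV-1 IIIB, wild-type or A17 (Y181C/K103N), in the presence of compound (0.005% or 0.05% DMSO) for 48 h at 37 °C. Luciferase RLU was read after lysis. Toxicity was measured in parallel by CellTiter-Blue fluorescence.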

[6] = system: HIV-1 IIIB (wild-type); test: HIV inhibition assay in TZM-bl cells, wild-type; format: cell-based; details: Human immunodeficiency virus 1, IIIB; for IC50: read-out: IC50 (TZM, WT)
Procedure, shortened: as §2

[7] = in vitro; format: in vitro ADME, mouse
Description: Protein Binding in Plasma: The donor side of dialysis inserts were filled with 200 μL plasma (human and mouse; source BioDuro, San Diego, California, United States of America) containing 5 μM drug and 0.5% of DMSO and the receiver side of the dialysis inserts was filled with 350 μL of PBS buffer (100 mM, pH 7.4). The prepared dialysis apparatus was placed in a shaker (37° C., 100 rpm) for 5 hours. Two tubes with plasma containing 5 μM experimental compound were also prepared for stability test: one tube was placed in the […] for 5 hours and the other tube was placed in shaker ([…], 100 rpm) for 5 hours. Samples were collected from the donor and receiver sides of each dialysis insert. The same volume of blank plasma was added to buffer samples and blank buffer to plasma samples to make sure all sample mixtures contain 50% plasma and 50% buffer. 50 μL of each sample was mixed with 300 μL of acetonitrile containing 25 ng/ml internal standard (propranolol). All samples were vortexed for 1 minute and then centrifuged at 4000 rpm, 4° C. for 15 min. 100 μL of the supernatant was transferred to 0.65 ml tube for LCMS analysis. The amount of compound was determined on the basis of the peak area ratio (compound area to internal standard area) for the two sides, and protein binding is determined using the following equations: % Bound=100×([Area Ratio of Donor]5h*5−[Area Ratio of Receiver]5h)/([Area Ratio of Donor]5h*5). The percentage remaining at 37° C. after 5 hours was calculated on the basis of the amount measured at 0° C. after 5 hours.

[8] = Human immunodeficiency virus 1, IIIB, TZM-bl, read-out: IC50 (TZM, A17), Table 3, TZM-bl, ± SEM, minimum 6 replicates
[9] = Human immunodeficiency virus 1, IIIB, TZM-bl, read-out: IC50 (TZM, A17), Table 4, TZM-bl
[10] = Table 3, TZM-bl, ± SEM, minimum 6 replicates

For N#C/C=C/c1ccc2c(S(=O)(=O)n3nc(Nc4ccc(C#N)c(Cl)c4)nc3N)cccc2c1 [Compound 20, 4-[[5-amino-1-[[6-[2-cyanovinyl]-1-naphthyl]sulfonyl]-1,2,4-triazol-3-yl]amino]-2-chloro-benzonitrile], the solubility at 4 h ([1]; 20 °C, kinetic from dmso stock) was < 0.2 µM, the “Qualitative Cell Toxicity within inhibition range” value ([2]; Table 3, TZM-bl) was “None” and the “Quantitative Cell Toxicity” value ([2]; Table 3, TZM-bl) was 4.06 µM. The CC50 at 48 h ([3]; Table 4, TZM-bl, read-out: CC50 (TZM)) was 4950 nM, the CC50 at 48 h ([3]; text b494, FIG. 2F, read-out: cytotoxicity CC50) was 5350 nM and the “Mouse liver microsomes, stability in words” value [4] was “stable”. The half-life at 1 μM ([4]; mouse, liver microsomes) was 2.07 h, the microsomal CLint at 1 μM ([4]; mouse, liver microsomes) was 11.1 µL/min/mg and the “activity against the A17 variant, in words” value [5] was “retained potent activity”. The IC50 [5, 8] was 0.689 ± 0.143 nM, the IC50 [5, 9] was 45.4 nM and the EC50 ([5]; Human immunodeficiency virus 1, IIIB, TZM-bl, read-out: activity against the A17 double mutant (Y181C/K103N), EC50) was 1.86 nM. For the same compound, the IC50 [6, 10] was 0.263 ± 0.05 nM, the IC50 ([6]; Table 4, TZM-bl) was 0.309 nM and the EC50 ([6]; text b494, FIG. 2F, read-out: antiviral activity against wildtype, EC50) was 0.22 nM. The half-life at 5 μM ([7]; mouse, plasma) was > 6.21 h and the fraction unbound ([7]; mouse, plasma, pH 7.4, 5 μM, dialysis 5 hours, read-out: Mouse plasma protein binding) was < 0.001.
For Nc1nc(Nc2ccc(Cl)cc2)nn1S(=O)(=O)c1ccc2ccccc2c1 [Compound 1, N3-(4-chlorophenyl)-1-(2-naphthylsulfonyl)-1,2,4-triazole-3,5-diamine], the solubility at 4 h [1] was <0.2 µM, the “Qualitative Cell Toxicity within inhibition range” value [2] was “None” and the CC50 at 48 h [3] was > 1000 nM. For the same compound, the “Mouse liver microsomes, stability in words” value [4] was “protein, stable”, the “Mouse liver microsomes CLint” value ([4]; mouse, liver microsomes, 1 μM) was 10.4 μL/min/mg protein and the IC50 [5, 8] was > 1000 nM. The IC50 [5, 9] was > 1000 nM, the IC50 [6, 10] was 9.33 ± 2.27 nM and the IC50 ([6]; Table 4, TZM-bl) was 9.33 nM. For the same compound, the “Mouse plasma protein binding” value ([7]; 5 μM, dialysis 5 hours) was >99.9%.
